Data taken from US20240016863A1, “LACTOBACILLUS JOHNSONII AND METHOD FOR INCREASING THE LEVEL OF UNSATURATION IN FATTY ACID USING LACTOBACILLUS JOHNSONII OR METABOLITES THEREOF” (TCI CO., LTD., priority 2022, published 2024).

System: HepG2 cells
Assay: Cholesterol metabolism test (cholesterol uptake, NBD cholesterol, flow cytometer)
Format: cell-based, Human
Conditions: U-18666A 1.25 μM, sample 0.25% (v/v)
Protocol: 1. Cell line: Human liver cells, purchased from ATCC (American Type Culture Collection), cell number: HB-8065, hereinafter referred to as HepG2 cells.
5. Cholesterol Uptake Cell-based Assay Kit: purchased from Cayman; product number: 600440. This cholesterol uptake cell-based assay kit included U-18666A and NBD cholesterol.
1. The HepG2 cells were inoculated into a 6-well culture plate containing 2 mL of cell medium in each well according to a density of 1×10^5 cells per well, and cultured at 37° C. for 24 h. The HepG2 cells were divided into three test groups, i.e., a Mock group, a control group and an experiment group, respectively. Each group underwent trial in triplicate.
2. […]
4. After rinsing, the cells of each group were processed according to the test process provided by the cholesterol uptake cell-based assay kit to obtain a test sample of each group; the parameters of the flow cytometer were set as excitation spectra and emission spectra of FITC, and then a green fluorescence signal of each group was detected by using the flow cytometer.
The relative cholesterol uptake in hepatocytes of all groups was calculated according to the following formula: relative cholesterol uptake in hepatocytes (%)=(green fluorescence signal of each group/green fluorescence signal of the Mock group)×100%.

CCN(CC)CCO[C@H]1CC[C@@]2(C)C(=CC[C@@H]3[C@@H]2CC[C@]2(C)C(=O)CC[C@@H]32)C1 [U-18666A]
relative cholesterol uptake in hepatocytes (HepG2, 20 μg/mL NBD cholesterol, 24-72 h, Mock group = 100%): 143.5%
relative cholesterol uptake in hepatocytes increased compared with the Mock group (HepG2): about 43.5%
